Assay results as given in publication PMC11870037 (Molecules, 2024).

Legend:
[1] = biological target: T1, M5 muscarinic cholinergic receptor (Homo sapiens, UniProt P08912); test: Muscarinic M5 receptor binding (lymphocyte suspension); details: lymphocyte suspension and sections
T1 construct: blood lymphocytes were used at a concentration of 1 × 10⁶ cells; endogenous in cells; host or cells: peripheral blood lymphocytes
Protocol: (§1) Antagonist potency was determined according to literature, by measuring inhibition of RAMH-induced [35S]GTPγS binding in recombinant hH3R membranes as previously. The […]
(§2) Inverse agonist potency was conducted by measuring inhibition of basal [35S]GTPγS binding in recombinant hH3 Rmembranes. Test compound or vehicle was added to the wells, followed by [35S]GTPγS to a final concentration of 0.2 nM. Nonspecific binding was determined in the presence of 10 μM unlabeled GTPγS. The control agonist signal was determined in wells containing vehicle in place of the test compound, and the basal signal was determined in wells containing vehicle in place of both diluted compound and the RAMH […]
(§3) 3. Selectivity of Compound 11b for Additional Receptors […]
(§4) transporter, 3[H]-WIN35,428, rat striatum; (2) Dopamine D1 receptor, 3[H]-SCH23390, rat striatum; (3) Dopamine D2 receptor, [3H]spiperone, rat striatum; (4) Dopamine D3 receptor, [3H] 7-OH-DPAT, rat olfactory tubercle; (5) Serotonin 5-HT2A receptor, [3H]Ketanserin, rat brain cortex;
(§5) (6) Serotonin 5-HT2C receptor, [3H]mesulergine, rat brain cortex; (7) Adrenergic α2 receptor, [3H]- rauwolscine, rat cerebral cortex; (8) Histamine H2 receptor, [3H]tiotidine, Sf9 cells and […]

[2] = biological target: Dopamine D1 receptor (Rattus norvegicus, UniProt P18901); test: Dopamine D1 receptor binding ([3H]-SCH23390); details: rat striatum
[3] = biological target: T2, σ1 receptor (Cavia porcellus, UniProt Q60492); test: σ1 receptor binding ([3H]-(+)-pentazocine); details: guinea pig brain membrane
T2 construct: from tissue; host or cells: guinea pig brain membranes
Protocol: as §1, §2, §3, §4, §5

[4] = biological target: T3, SERT (Rattus norvegicus, UniProt P31652); test: Monoamine uptake transporter assay, [3H]5-HT uptake by SERT; assay type: biochemical
T3 construct: [3H]-paroxetine, rat cerebral cortex; from tissue; host or cells: rat cerebral cortex (membranes / crude synaptosomes)

[5] = biological target: T4, M2 muscarinic receptor (Homo sapiens, UniProt P08172); test: Muscarinic M2 receptor binding (lymphocyte suspension); details: lymphocyte suspension and sections
T4 construct: blood lymphocytes were used at a concentration of 1 × 10⁶ cells; endogenous in cells; host or cells: peripheral blood lymphocytes

[6] = biological target: T5, Serotonin 5-HT2A receptor (Rattus norvegicus, UniProt P14842); test: Serotonin 5-HT2A receptor binding ([3H]ketanserin); details: rat brain cortex
T5 construct: The cerebral cortex of a rat was finely homogenized using an ULTRA TURAX; from tissue; host or cells: rat cerebral cortex membranes

[7] = biological target: T6, M4 muscarinic cholinergic receptor (Homo sapiens, UniProt P08173); test: Muscarinic M4 receptor binding (lymphocyte suspension); details: lymphocyte suspension and sections
T6 construct: blood lymphocytes were used at a concentration of 1 × 10⁶ cells; endogenous in cells; host or cells: peripheral blood lymphocytes

[8] = biological target: Dopamine transporter (Rattus norvegicus, UniProt P23977); test: Dopamine transporter binding ([3H]-WIN35,428); details: rat striatum; read-out: Ki DAT
[9] = biological target: NMDA receptor (Rattus norvegicus, UniProt P35439); test: NMDA receptor binding; details: read-out: Ki NDMA
[10] = biological target: T7, σ2 receptor (Cavia porcellus, UniProt H0V073); test: σ2 receptor binding ([3H]-DTG); details: guinea pig brain membrane
T7 construct: from tissue; host or cells: guinea pig brain membranes

[11] = Acute toxicity, up-and-down procedure; details: female, rat, in vivo; females, F344 rats, oral
Protocol: The hERG potassium channel blocking potential was evaluated using the whole-cell patch clamp method with hERG channels expressed in HEK 293 cells as the biological material. The Axopatch 200B amplifier and Digidata 1440A converter from Molecular Devices were integral to the setup. Electrodes crafted from borosilicate glass with filament by Sutter Instrument Company were used for recordings.
Command pulse protocols for voltage clamping and data acquisition were managed by pCLAMP […]
The bath solution contained 137 mM NaCl, 5.4 mM KCl, 10 mM glucose, 10 mM HEPES, and 2 mM CaCl2, with pH adjusted to 7.5 by NaOH. The pipet solution was composed of 140 mM KCl, 1 mM MgCl2, 5 mM EGTA, 10 mM HEPES, and 5 mM Na2ATP, with pH adjusted to 7.2 using KOH. The compound 11b was dissolved in a 50% (w/v) DMSO solution at an initial concentration of 1 mM and diluted to the test concentration with the bath solution. […]
number of surviving animals was recorded after 24 h of drug administration, and the percent mortality in each group was calculated. The LD50 values were calculated by using the soft AOT425statpgm […]
group containing 16 mice. […] The duration of immobility during the last 4 minutes of a total time of 6 minutes was recorded, and animals were judged to be immobile when they floated motionless, making only necessary movements to keep their heads above the water. […]

T3 sequence (P31652 whole entry): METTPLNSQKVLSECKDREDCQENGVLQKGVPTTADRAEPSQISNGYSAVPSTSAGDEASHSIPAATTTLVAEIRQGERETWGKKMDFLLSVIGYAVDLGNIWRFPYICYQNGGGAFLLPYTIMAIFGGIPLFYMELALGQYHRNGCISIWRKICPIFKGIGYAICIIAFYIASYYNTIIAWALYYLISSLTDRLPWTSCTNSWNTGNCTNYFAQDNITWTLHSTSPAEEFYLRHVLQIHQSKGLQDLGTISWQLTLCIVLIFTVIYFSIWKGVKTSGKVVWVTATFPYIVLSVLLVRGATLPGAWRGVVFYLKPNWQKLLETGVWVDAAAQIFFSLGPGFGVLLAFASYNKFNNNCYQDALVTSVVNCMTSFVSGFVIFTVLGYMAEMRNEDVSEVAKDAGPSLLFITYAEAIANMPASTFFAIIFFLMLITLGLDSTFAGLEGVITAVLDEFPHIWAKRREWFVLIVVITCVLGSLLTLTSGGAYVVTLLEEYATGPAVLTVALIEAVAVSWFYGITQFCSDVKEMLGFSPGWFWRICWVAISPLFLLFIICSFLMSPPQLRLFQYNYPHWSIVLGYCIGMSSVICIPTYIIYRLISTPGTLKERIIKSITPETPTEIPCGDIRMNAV
Sequence of Dopamine transporter (P23977 whole entry): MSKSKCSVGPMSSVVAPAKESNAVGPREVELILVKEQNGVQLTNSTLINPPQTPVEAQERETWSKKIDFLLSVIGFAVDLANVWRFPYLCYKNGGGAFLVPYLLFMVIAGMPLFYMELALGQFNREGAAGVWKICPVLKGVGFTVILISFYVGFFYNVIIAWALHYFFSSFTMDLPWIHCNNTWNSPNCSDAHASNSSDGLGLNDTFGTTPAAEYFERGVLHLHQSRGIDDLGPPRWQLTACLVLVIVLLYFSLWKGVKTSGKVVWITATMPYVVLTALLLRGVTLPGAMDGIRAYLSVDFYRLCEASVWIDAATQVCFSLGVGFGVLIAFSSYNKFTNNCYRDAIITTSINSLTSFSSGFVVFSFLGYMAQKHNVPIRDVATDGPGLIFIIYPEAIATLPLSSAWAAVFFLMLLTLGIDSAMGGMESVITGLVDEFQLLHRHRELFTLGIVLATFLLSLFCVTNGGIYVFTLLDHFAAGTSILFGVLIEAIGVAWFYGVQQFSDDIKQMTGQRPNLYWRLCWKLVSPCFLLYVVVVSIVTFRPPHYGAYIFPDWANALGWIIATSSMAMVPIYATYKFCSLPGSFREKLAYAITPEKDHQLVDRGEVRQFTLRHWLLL
T6 sequence (P08173 whole entry): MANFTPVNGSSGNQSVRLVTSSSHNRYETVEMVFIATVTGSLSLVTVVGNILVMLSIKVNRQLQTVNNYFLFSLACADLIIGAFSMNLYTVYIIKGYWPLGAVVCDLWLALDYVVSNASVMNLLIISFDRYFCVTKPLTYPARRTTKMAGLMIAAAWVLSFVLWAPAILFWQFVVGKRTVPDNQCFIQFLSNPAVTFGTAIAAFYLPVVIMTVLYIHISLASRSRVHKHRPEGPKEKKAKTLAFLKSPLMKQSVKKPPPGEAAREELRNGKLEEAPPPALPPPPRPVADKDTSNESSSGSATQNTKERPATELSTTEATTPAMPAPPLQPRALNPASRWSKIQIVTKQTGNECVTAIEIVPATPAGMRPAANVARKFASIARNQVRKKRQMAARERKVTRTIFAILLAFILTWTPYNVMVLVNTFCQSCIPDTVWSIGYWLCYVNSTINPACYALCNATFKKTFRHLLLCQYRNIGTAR
T4 sequence (P08172 whole entry): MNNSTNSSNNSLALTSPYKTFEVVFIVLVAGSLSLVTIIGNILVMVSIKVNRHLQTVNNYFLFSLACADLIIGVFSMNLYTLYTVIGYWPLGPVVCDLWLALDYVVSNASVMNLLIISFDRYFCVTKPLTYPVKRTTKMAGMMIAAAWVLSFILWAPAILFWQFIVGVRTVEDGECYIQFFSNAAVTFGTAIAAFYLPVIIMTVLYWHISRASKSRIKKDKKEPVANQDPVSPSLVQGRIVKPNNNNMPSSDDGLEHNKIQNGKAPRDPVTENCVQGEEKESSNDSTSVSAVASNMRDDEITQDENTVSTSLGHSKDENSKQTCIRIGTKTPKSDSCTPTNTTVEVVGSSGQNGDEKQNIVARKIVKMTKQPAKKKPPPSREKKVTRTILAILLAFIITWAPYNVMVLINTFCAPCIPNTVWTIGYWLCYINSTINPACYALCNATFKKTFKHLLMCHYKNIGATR
T1 sequence (P08912 whole entry): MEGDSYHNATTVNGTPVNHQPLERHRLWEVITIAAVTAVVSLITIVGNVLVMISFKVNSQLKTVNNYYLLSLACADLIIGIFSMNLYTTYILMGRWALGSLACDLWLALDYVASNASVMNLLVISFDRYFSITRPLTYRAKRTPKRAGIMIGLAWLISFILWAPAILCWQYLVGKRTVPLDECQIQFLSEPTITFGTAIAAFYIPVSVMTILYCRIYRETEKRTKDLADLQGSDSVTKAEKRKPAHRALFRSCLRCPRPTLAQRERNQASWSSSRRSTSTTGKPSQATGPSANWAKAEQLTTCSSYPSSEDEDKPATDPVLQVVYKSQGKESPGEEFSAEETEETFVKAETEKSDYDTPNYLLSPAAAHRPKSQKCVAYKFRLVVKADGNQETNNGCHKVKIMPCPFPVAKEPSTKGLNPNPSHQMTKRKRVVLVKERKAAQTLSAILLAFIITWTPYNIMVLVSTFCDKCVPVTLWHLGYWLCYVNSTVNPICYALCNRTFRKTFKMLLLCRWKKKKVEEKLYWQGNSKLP
Sequence of Dopamine D1 receptor (P18901 whole entry): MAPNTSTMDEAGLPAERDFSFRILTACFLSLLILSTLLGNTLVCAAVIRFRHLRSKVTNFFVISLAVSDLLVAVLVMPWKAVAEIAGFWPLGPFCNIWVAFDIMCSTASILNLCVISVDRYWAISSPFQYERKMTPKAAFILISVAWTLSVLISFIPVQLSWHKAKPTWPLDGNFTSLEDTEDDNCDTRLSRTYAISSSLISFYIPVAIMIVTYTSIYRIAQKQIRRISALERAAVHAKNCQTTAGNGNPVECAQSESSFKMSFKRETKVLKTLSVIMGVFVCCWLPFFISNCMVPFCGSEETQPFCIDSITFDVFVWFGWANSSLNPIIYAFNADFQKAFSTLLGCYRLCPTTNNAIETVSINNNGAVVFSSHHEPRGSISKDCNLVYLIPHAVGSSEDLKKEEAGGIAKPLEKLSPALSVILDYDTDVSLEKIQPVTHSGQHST
T5 sequence (P14842 whole entry): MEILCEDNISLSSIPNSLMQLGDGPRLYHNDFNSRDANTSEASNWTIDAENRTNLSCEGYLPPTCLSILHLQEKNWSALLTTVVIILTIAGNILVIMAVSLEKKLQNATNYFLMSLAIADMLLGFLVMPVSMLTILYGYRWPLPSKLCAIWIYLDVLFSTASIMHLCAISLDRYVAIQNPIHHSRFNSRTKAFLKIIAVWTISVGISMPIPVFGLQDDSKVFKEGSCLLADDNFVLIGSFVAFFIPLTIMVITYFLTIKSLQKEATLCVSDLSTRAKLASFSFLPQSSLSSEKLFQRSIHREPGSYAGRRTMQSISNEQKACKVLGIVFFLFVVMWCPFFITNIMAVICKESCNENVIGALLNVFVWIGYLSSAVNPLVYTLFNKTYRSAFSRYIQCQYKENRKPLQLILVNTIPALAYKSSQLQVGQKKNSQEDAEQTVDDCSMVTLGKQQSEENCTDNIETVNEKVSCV
T7 sequence (H0V073 1-176): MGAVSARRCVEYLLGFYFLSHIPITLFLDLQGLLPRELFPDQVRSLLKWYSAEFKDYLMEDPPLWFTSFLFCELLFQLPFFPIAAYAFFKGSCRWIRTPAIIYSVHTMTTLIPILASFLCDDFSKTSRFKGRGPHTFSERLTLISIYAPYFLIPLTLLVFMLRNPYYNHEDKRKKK
T2 sequence (Q60492 whole entry): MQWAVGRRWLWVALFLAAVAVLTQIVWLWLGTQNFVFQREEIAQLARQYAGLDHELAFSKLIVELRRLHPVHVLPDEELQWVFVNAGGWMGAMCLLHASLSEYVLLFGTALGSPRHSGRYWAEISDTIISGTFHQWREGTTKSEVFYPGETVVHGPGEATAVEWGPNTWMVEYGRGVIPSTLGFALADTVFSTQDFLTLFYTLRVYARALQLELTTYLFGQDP

In the case of `CN(C)CCC(Oc1cccc2c1OCO2)c1ccc(OCCCN2CCCCC2)cc1.O=C(O)C(=O)O` (stereo not shown) [Compound 11b, 3-(benzo[d][1,3]dioxol-4-yloxy)-N,N-dimethyl-3-(4-(3-(piperidin-1-yl)propoxy)phenyl)propan-1-amine oxalate], the Ki [1] is reported as over 1 µM, the Ki [2] is reported as over 1 µM and the Ki [3] is reported as over 1 µM. The “Activation (10 μM, %) SERT” value ([4]; 10 μM, n = 3) was 4.4 ± 0.3%, the inhibition at 10 µM ([4]; 10 μM, n = 3) was over 90% and the IC50 ([4]; [3H]5-HT uptake, antagonist assay) was 0.0201 µM. It also gave a Ki [5] of over 1 µM, a Ki [6] of 0.32 µM and a Ki [7] of over 1 µM. For the same compound, the Ki [8] was over 1 µM, the Ki [9] was over 1 µM and the Ki [10] was over 1 µM. It also gave an LD50 at 24 h [11] of 512 mg/kg.
